Tests used:
[1] = tested on: IKACh in dog atrial trabecular muscle preparations; test: Action potential duration in carbachol-pretreated dog atrial trabecular muscle; conditions: 1 µM, 10 min
Description: The possible effect of SZV-2649 on IKACh was investigated in dog atrial trabecular muscle preparations. Carbachol (1 µM) was added to the tissue bath for 10 min to activate IKACh. […] Application of 10 µM SZV-2649 prolonged APD substantially to a greater degree (100%) than could be expected by its effect on repolarization in the absence of carbachol (10%) as shown in Table 1; Fig. 5D.
Action potentials were recorded in cardiac ventricular trabeculae and papillary muscle preparations obtained from the right ventricles of Beagle dogs (10–15 kg) of either sex using the conventional microelectrode technique. Dogs were sacrificed by iv. sedation with xylazine (1 mg/kg), followed by i.v. administration of 50 mg/kg pentobarbital. After the cornea reflex disapeared the chest was opened, and the heart was rapidly removed. […]
Isolated papillary muscle or atrial trabecula and Purkinje fiber preparations were obtained and prepared from the right ventricle and were individually mounted in a tissue chamber with the volume of 50 ml. […] Transmembrane potentials were recorded using conventional glass microelectrodes, filled with 3 M KCl and having tip resistances of 5–20 MΩ, connected to the input of a high impedance electrometer (Experimetria, type 309, Budapest, Hungary) which was coupled to a dual beam oscilloscope. […]

anesthetized rats = test: Coronary artery occlusion/reperfusion-induced ventricular arrhythmias in anesthetized rats; assay type: in vivo, rat; conditions: for Effect on incidence of ventricular arrhythmias: 6 min coronary artery occlusion / 5 min reperfusion, i.v. 2 min before ischemia; for Incidence of ventricular fibrillation (VF): during reperfusion, over 50% in control animals; for Effect on heart rate: i.v. administration, anesthetized rats
Excerpt: The effects of SZV-2649 were further studied in the acute ischemia-induced ventricular arrhythmia model in anasthetized rats. Mexiletine and dofetilide were used as reference compounds for comparison.
The surgical procedure was based on a modified method described in detail in Gömöri et al. (2020)[62]. Pentobarbital-anesthetized male Wistar-Hannover rats were mechanically ventilated and subjected to thoracic surgery to perform a 6-min coronary artery occlusion and 5-min of reperfusion for the development of ischemia-induced ventricular arrhythmias (see Fig. 6A). The right jugular vein was cannulated for the administration of SZV-2649, vehicle, mexiletine or dofetilide, and the right carotid artery was used to measure blood pressure. The three-lead electrocardiogram and body temperature were continuously registered. Ten to twelve rats per group were administered vehicle (dimethyl sulfoxide, 200 µL/kg) or the studied drugs (see above), 2 min before the onset of ischemia as a slow i.v. bolus injection through the right jugular vein. At the end of 5-min reperfusion, hearts were isolated, mounted onto a Langendorff perfusion system, and after re-occluding the coronary artery, were perfused with 5-mL of 70% ethanol via the ascending aorta to delineate the ischemic risk zone. Then the left ventricles were cut along the demarcation lines of denatured area, and the sections were weighed to determine the area of risk to normalize the extent of the ischaemic insult. We evaluated the occurrence of ventricular arrhythmias based on the recommendations of the modified Lambeth Conventions published previously by Curtis et al. (2013)[63].

anesthetized dogs = test: Atrial fibrillation induced by carbachol infusion and burst stimulation in anesthetized dogs; assay type: in vivo, dog; design: key to AF converted to SR? / AF reinduced?: N, response not observed; Y, response observed; conditions: i.v. 0.3 mg/kg
Description: The effect of SZV-2649 was further investigated in carbachol-infused and programmed electrical stimulation-induced (i.e. 800/min atrial burst stimulation) acute atrial fibillation model in anesthetized dogs.
In the atrial fibrillation experiments, at least 5–6 dogs for control and test groups, (respectively) were used. Following 0.5 µg/kg sufentanyl premedication and […] i.v. pentobarbital anaesthesia induction, left thoracotomy was performed on all animals. Dogs were endotracheally intubated and mechanically ventilated (UGO Basile respirator; Biological Research Apparatus, Italy) Physiological parameters (non-invasive blood pressure, SpO2, ECG) were continuously monitored during surgery and experiments (InnoCare-VET Patient Care Monitor; Budapest, Hungary). The ECGs were recorded using precordial leads and were digitized and stored on a computer for off-line analysis using National Instruments data acquisition hardware (National Instruments, Austin, Texas, USA) and SPEL Advanced Haemosys software (version 3.2, MDE Heidelberg GmbH, Germany). Under pentobarbital anaesthesia, two pacemaker electrodes (Biotronik Solia S 60; Biotronik Ltd., Hungary) were positioned epicardially into the left atrial appendage and apex of the left ventricle, respectively, and electrodes were connected to pacemakers (Effecta D; Biotronik Hungary Ltd., Hungary). Pacemakers were programmed in VVI mode using Biotronik IC: 4808 A-Renamic programmer to prevent the potentially bradycardic effect of carbachol leading to hemodynamic instability. Atrial and ventricular thresholds were measured before AF induction in all animals. Ventricular and atrial pacing were set to three times the measured threshold. AF inducibility were tested in both groups using a control set (25 times) of 10-second-long rapid atrial bursts (800 beats/min, at threefold threshold). Following 25 atrial burst stimuli, 2 × 2 µg/kg loading dose of intravenous carbachol was administered followed by an 8 µg/kg/h maintenance dose. Atrial fibrillation was induced using 10-second-long atrial burst stimuli in the presence of carbachol in both groups of dogs. […] In these experiments, we investigated whether AF was converted to SR by the test drug(s). All intravenous infusions were performed using a programmable infusion pump (Terufusion TE-3; Terumo Europe, Leuven, Belgium).

Structure (SMILES) | Effect on incidence of ventricular arrhythmias (anesthetized rats) | Incidence of ventricular fibrillation (VF) (anesthetized rats) | Effect on heart rate (anesthetized rats) | also measured
C[N+](C)(C)CCOC(N)=O [carbachol, reference compound] | – | – | – | Effect on atrial repolarization [1]: substantially shortened
CN(CCOc1ccc(NS(C)(=O)=O)cc1)CCc1ccc(NS(C)(=O)=O)cc1 [dofetilide] | increased | 75% | significantly decreased | –
Cc1cccc(C)c1OCC(C)N (centres unmarked) [mexiletine] | showed some antiarrhythmic effects | 18% | significantly decreased | –
CCCNCC(O)COc1ccccc1C(=O)CCc1ccccc1 (centres unmarked) [propafenone, reference compound] | – | – | – | AF reinduced (number of the 25 burst stimuli) (anesthetized dogs; individual dogs, carbachol + burst): 1/25; AF reinduced? (anesthetized dogs; individual dogs, carbachol + burst, 0.3 mg/kg): N (-) and Y; Atrial fibrillation reinduced, share of burst stimuli (anesthetized dogs; whole group): 1.6%; Times atrial fibrillation was reinduced by the 25 burst stimuli delivered in each animal (anesthetized dogs; whole group): 2 times

— PMC11455950, “Effects of SZV-2649, a new multiple ion channel inhibitor mexiletine analogue” (Scientific Reports, 2024)
